Molecules are shown by their SMILES. Values joined by “and” are separate entries in the source; they are usually repeats but may differ in a detail not shown here. Equal entries are not always repeated. Inconclusive results and toxic doses are left out.

The test system of this experiment is L1210 leukemia ip in BDF1 mice, survival T/C. Put plainly: NCI In Vivo Anticancer Drug Screen. Data for tumor model L1210 Leukemia (intraperitoneal) in B6D2F1 (BDF1) mice. Particulars: endpoint: mean survival time, higher = longer survival. The essentials: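 Tumor was transplanted into mice, which were then dosed with test compound or vehicle alone. Survival was recorded for each group, and the treated figure was expressed relative to the control figure.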

Where [1] appears, read: dose: 50.0 mg/kg/injection, schedule: Q01DX009 (ip), vehicle: Klucel (hydroxypropylcellulose) (HPC).
[2] abbreviates: dose: 100.0 mg/kg/injection, schedule: Q04DX003 (ip), vehicle: Klucel (hydroxypropylcellulose) (HPC).
Where [3] appears, read: dose: 200.0 mg/kg/injection, schedule: Q04DX003 (ip), vehicle: Klucel (hydroxypropylcellulose) (HPC).
[4] abbreviates: dose: 400.0 mg/kg/injection, schedule: Q04DX003 (ip), vehicle: Klucel (hydroxypropylcellulose) (HPC).
The mark [5] stands for this setting: dose: 100.0 mg/kg/injection, schedule: Q01DX009 (ip), vehicle: saline.
[6] abbreviates: dose: 100.0 mg/kg/injection, schedule: Q04DX003 (ip), vehicle: saline.
Where [7] appears, read: dose: 200.0 mg/kg/injection, schedule: Q01DX009 (ip), vehicle: saline.
[8] abbreviates: dose: 200.0 mg/kg/injection, schedule: Q04DX003 (ip), vehicle: saline.
The mark [9] stands for this setting: dose: 100.0 mg/kg/injection, schedule: Q04DX002 (ip), vehicle: Klucel (hydroxypropylcellulose) (HPC).
The mark [10] stands for this setting: dose: 200.0 mg/kg/injection, schedule: Q04DX002 (ip), vehicle: Klucel (hydroxypropylcellulose) (HPC).
[11] abbreviates: dose: 400.0 mg/kg/injection, schedule: Q04DX002 (ip), vehicle: Klucel (hydroxypropylcellulose) (HPC).

For `O=C1c2ccccc2C(=O)N1Cc1cccc([N+](=O)[O-])c1`, the T/C by setting is: (dose: 12.5 mg/kg/injection, schedule: Q01DX009 (ip), vehicle: Klucel (hydroxypropylcellulose) (HPC)) 87 % of control; (dose: 25.0 mg/kg/injection, schedule: Q01DX009 (ip), vehicle: Klucel (hydroxypropylcellulose) (HPC)) 87 % of control; under setting [1], 94 % of control; under setting [2], 93 % of control; under setting [3], 97 % of control; under setting [4], 90 % of control.

Consider `COC(=O)C(C)(N)Cc1ccc(O)cc1` (stereo not given), for which the T/C (dose: 50.0 mg/kg/injection, schedule: Q01DX009 (ip), vehicle: saline) was 102 % of control; the T/C under setting [5] was 97 % of control; the T/C under setting [6] was 96 % of control; the T/C under setting [7] is 105 % of control; the T/C under setting [8] is 93 % of control.

Take `O=C(O)Cc1ccc2c(c1)OCO2.[Ag]`: the T/C is 95 % of control (dose: 9.38 mg/kg/injection, schedule: Q01DX001 (ip), vehicle: steriod suspending solution); 94 % of control (dose: 18.75 mg/kg/injection, schedule: Q01DX001 (ip), vehicle: steriod suspending solution); 92 % of control (dose: 37.5 mg/kg/injection, schedule: Q01DX001 (ip), vehicle: steriod suspending solution).

As for `OC(C1COC(CBr)O1)C(O)C1COC(CBr)O1` (stereo not given), the T/C is, setting by setting: under setting [9], 117 % of control and 113 % of control; under setting [10], 98 % of control and 103 % of control; under setting [11], 95 % of control.

Consider `Cc1[nH]cnc1C(c1ccccc1)c1ccccc1`, for which the T/C is, setting by setting: (dose: 100.0 mg/kg/injection, schedule: Q01DX001 (ip), vehicle: saline with Tween-80) 108 % of control; (dose: 200.0 mg/kg/injection, schedule: Q01DX001 (ip), vehicle: saline with Tween-80) 100 % of control.

Regarding `c1nc(SC2CCCC2)c2[nH]cnc2n1`, the T/C by setting is: (dose: 5.0 mg/kg/injection, schedule: Q01DX Z (ip), vehicle: carboxymethylcellulose (CMC)) 106 % of control; (dose: 10.0 mg/kg/injection, schedule: Q01DX Z (ip), vehicle: carboxymethylcellulose (CMC)) 103 % of control; (dose: 10.0 mg/kg/injection, schedule: Q01DX Z (oral), vehicle: carboxymethylcellulose (CMC)) 108 % of control; (dose: 21.0 mg/kg/injection, schedule: Q01DX Z (ip), vehicle: carboxymethylcellulose (CMC)) 112 % of control; (dose: 21.0 mg/kg/injection, schedule: Q01DX Z (oral), vehicle: carboxymethylcellulose (CMC)) 108 % of control; (dose: 25.0 mg/kg/injection, schedule: Q01DX009 (ip), vehicle: carboxymethylcellulose (CMC)) 115 % of control. The T/C runs as follows: (dose: 42.0 mg/kg/injection, schedule: Q01DX Z (ip), vehicle: carboxymethylcellulose (CMC)) 112 % of control; (dose: 42.0 mg/kg/injection, schedule: Q01DX Z (oral), vehicle: carboxymethylcellulose (CMC)) 106 % of control; (dose: 42.5 mg/kg/injection, schedule: Q01DX Z (ip), vehicle: carboxymethylcellulose (CMC)) 122 % of control; (dose: 50.0 mg/kg/injection, schedule: Q01DX009 (ip), vehicle: carboxymethylcellulose (CMC)) 119 % of control; (dose: 84.0 mg/kg/injection, schedule: Q01DX Z (oral), vehicle: carboxymethylcellulose (CMC)) 150 % of control; (dose: 85.0 mg/kg/injection, schedule: Q01DX Z (ip), vehicle: carboxymethylcellulose (CMC)) 163 % of control. Further, the T/C (dose: 176.0 mg/kg/injection, schedule: Q01DX001 (ip), vehicle: carboxymethylcellulose (CMC)) was 98 % of control; the T/C (dose: 264.0 mg/kg/injection, schedule: Q01DX001 (ip), vehicle: carboxymethylcellulose (CMC)) is 100 % of control; the T/C (dose: 340.0 mg/kg/injection, schedule: Q01DX Z (ip), vehicle: carboxymethylcellulose (CMC)) is 110 % of control; the T/C (dose: 340.0 mg/kg/injection, schedule: Q01DX Z (oral), vehicle: carboxymethylcellulose (CMC)) was 152 % of control; the T/C (dose: 400.0 mg/kg/injection, schedule: Q01DX001 (ip), vehicle: carboxymethylcellulose (CMC)) was 93 % of control.

In the case of `CN1CC(C(=O)NCc2ccccc2)CC2c3cccc4[nH]cc(c34)CC21` (stereo not given), the T/C is, setting by setting: (dose: 25.0 mg/kg/injection, schedule: Q04DX003 (ip), vehicle: Klucel (hydroxypropylcellulose) (HPC)) 96 % of control; (dose: 50.0 mg/kg/injection, schedule: Q04DX003 (ip), vehicle: Klucel (hydroxypropylcellulose) (HPC)) 91 % of control; under setting [2], 96 % of control; under setting [3], 89 % of control; under setting [4], 91 % of control.

As for `CC(O)CN1CC(C)N(CC(C)O)CC1C` (stereo not given), the T/C is 104 % of control under setting [5]; 100 % of control under setting [6]; 102 % of control under setting [7]; 86 % of control under setting [8]; 98 % of control (dose: 400.0 mg/kg/injection, schedule: Q01DX009 (ip), vehicle: saline); 88 % of control (dose: 400.0 mg/kg/injection, schedule: Q04DX003 (ip), vehicle: saline).

With `O=C(O)c1cc(Br)ccc1I`, the T/C reads like this: under setting [9], 104 % of control; under setting [10], 97 % of control; under setting [11], 101 % of control.

For the molecule `CC1CC2OC(=O)C(O)(CO)C2CC2(C)C(=O)C=CC12` (stereo not given), the T/C runs as follows: (dose: 25.0 mg/kg/injection, schedule: Q04DX002 (ip), vehicle: saline) 102 % of control; (dose: 50.0 mg/kg/injection, schedule: Q04DX002 (ip), vehicle: saline) 124 % of control; (dose: 100.0 mg/kg/injection, schedule: Q04DX002 (ip), vehicle: saline) 120 % of control.

Turning to `CN(C)N=Nc1ccccc1C#N`, the T/C is 103 % of control under setting [1]; 108 % of control (dose: 100.0 mg/kg/injection, schedule: Q01DX009 (ip), vehicle: Klucel (hydroxypropylcellulose) (HPC)); 112 % of control under setting [2]; 113 % of control (dose: 200.0 mg/kg/injection, schedule: Q01DX009 (ip), vehicle: Klucel (hydroxypropylcellulose) (HPC)); 113 % of control under setting [3]; 105 % of control and 120 % of control (dose: 400.0 mg/kg/injection, schedule: Q01DX009 (ip), vehicle: Klucel (hydroxypropylcellulose) (HPC)). The T/C under setting [4] was 107 % of control.

With `CC(C)CCNc1ncnc2c1cnn2C`, the T/C is, setting by setting: (dose: 25.0 mg/kg/injection, schedule: Q04DX003 (ip), vehicle: saline) 97 % of control; (dose: 50.0 mg/kg/injection, schedule: Q04DX003 (ip), vehicle: saline) 97 % of control; under setting [6], 102 % of control.

With `CN(C)C(=S)N=Nc1c(O)[nH]c2ccccc12`, the T/C was 103 % of control (dose: 75.0 mg/kg/injection, schedule: Q01DX001 (ip), vehicle: other); 96 % of control (dose: 150.0 mg/kg/injection, schedule: Q01DX001 (ip), vehicle: other); 105 % of control (dose: 300.0 mg/kg/injection, schedule: Q01DX001 (ip), vehicle: other).

For the molecule `COc1ccc(OC)c(NC(=S)N/N=C(/C)c2cc([N+](=O)[O-])c(O)cc2O)c1`, the T/C (dose: 12.5 mg/kg/injection, schedule: Q04DX002 (ip), vehicle: Klucel (hydroxypropylcellulose) (HPC)) was 102 % of control; the T/C (dose: 25.0 mg/kg/injection, schedule: Q04DX002 (ip), vehicle: Klucel (hydroxypropylcellulose) (HPC)) is 102 % of control; the T/C (dose: 50.0 mg/kg/injection, schedule: Q04DX002 (ip), vehicle: Klucel (hydroxypropylcellulose) (HPC)) was 105 % of control.

With `CCOCCNc1ccc(S(=O)(=O)c2ccc(N)cc2)cc1N`, the T/C (dose: 100.0 mg/kg/injection, schedule: Q01DX001 (ip), vehicle: saline) was 95 % of control; the T/C (dose: 200.0 mg/kg/injection, schedule: Q01DX001 (ip), vehicle: saline) is 90 % of control; the T/C (dose: 400.0 mg/kg/injection, schedule: Q01DX001 (ip), vehicle: saline) is 97 % of control.

Take `COc1cccc(CC(C)(C)CCO)c1`: the T/C is 102 % of control (dose: 50.0 mg/kg/injection, schedule: Q01DX009 (ip), vehicle: saline with Tween-80); 100 % of control (dose: 100.0 mg/kg/injection, schedule: Q01DX009 (ip), vehicle: saline with Tween-80); 96 % of control (dose: 200.0 mg/kg/injection, schedule: Q01DX009 (ip), vehicle: saline with Tween-80).

(Values after PubChem BioAssay AID248 (DTP/NCI, 2004).)
